Results on one compound are retold here after patent US5194611A, “Separation technique for a mixture of (6RS)-diastereoisomers of an ammonium salt of N^5 -methyl-5,6,7,8-tetrahydrofolic acid into single (6R) and (6S)-diastereoisomers” (Sapec S.A. fine chemicals, priority 1990, dated 1993).

Counter-ions that a name gives are not always drawn.

The subject of this assay is human CCRF-CEM cells. Briefly: cells. To be noted: 72 h, read-out: % growth (72 hrs exp.). As to the method:
Inhibition of the growth of human CCRF-CEM cells
Human leukemia cells (CCRF-CEM) were grown during 72 hours in the presence of increasing concentration of (6R)-N^5 -methyl-THF.[…].

Take `CN1c2c(nc(N)[nH]c2=O)NC[C@H]1CNc1ccc(C(=O)N[C@@H](CCC(=O)O)C(=O)O)cc1` [(6R)-N^5 -Methyl-THF.Ca^2+, (6R)-N^5 -methyl-THF-calcium salt]: the activity at 1 µM is 95%, the activity at 10 µM came out at 99%, the activity at 30 µM came out at 10% and the activity at 100 µM stood at 9.3%. Further, the activity at 250 µM was determined as 8.2%.
